Columns and labels:
CRBN and Helios (IKZF2) = target: T1, CRBN and Helios (IKZF2) (Homo sapiens, UniProt Q96SW2+Q9UKS7); assay: TR-FRET dimerization assay (CRBN-IKZF2 ternary complex formation); format: binding; details: n=1
T1 construct: His (N); Strep (N)
How it was run: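 Compound-induced IKZF2 recruitment to CRBN was read as the 520/490 nm TR-FRET ratio after 15 min at rt. The mix held biotinylated IKZF2, BODIPY-labeled CRBN bound to DDB1 lacking the BPB propeller, tracer Tb-streptavidin and compound titrations; n=1, from ≥3 technical replicates per well.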

IKZF2 = assay: Cellular degradation assay, eGFP-IKZF2Δ fusion with mCherry reporter in Flp-In 293 cells; format: cell-based; details: 5 h incubation, n=1
How it was run: (§1)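 DC50,5 h derived by variable-slope nonlinear fit of the per-well ratio of GFP-positive to mCherry-positive cells, imaged after 5 h compound exposure at 0.5% DMSO.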

IKZF1 = target: T2, IKZF1 (Homo sapiens, UniProt Q13422); assay: Cellular degradation assay, eGFP-IKZF1Δ fusion with mCherry reporter in Flp-In 293 cells; format: cell-based; details: 5 h incubation, n=1
T2 construct: expressed in transfected cells; host or cells: Flp-In 293
T2 sequence (Q13422 83-213 isoform Q13422-7 limits assumed): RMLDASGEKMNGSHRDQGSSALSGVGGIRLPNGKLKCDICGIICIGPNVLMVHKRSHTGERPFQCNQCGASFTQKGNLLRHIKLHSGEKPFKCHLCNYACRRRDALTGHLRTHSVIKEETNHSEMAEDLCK
T2 sequence (Q96SW2 whole entry partner, the tested form may be a part): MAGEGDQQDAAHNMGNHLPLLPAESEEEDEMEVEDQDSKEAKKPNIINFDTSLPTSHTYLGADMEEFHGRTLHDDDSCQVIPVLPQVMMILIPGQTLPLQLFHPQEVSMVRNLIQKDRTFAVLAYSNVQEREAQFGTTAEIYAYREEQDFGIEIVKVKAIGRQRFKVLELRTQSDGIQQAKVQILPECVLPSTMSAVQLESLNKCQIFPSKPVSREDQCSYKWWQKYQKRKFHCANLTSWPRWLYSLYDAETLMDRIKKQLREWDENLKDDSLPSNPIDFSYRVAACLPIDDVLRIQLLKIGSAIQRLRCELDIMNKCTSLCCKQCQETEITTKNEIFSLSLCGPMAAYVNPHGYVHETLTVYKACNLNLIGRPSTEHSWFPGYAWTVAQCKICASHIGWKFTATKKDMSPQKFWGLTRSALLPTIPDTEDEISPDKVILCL
T2 sequence (Q16531 2-1140 partner limits assumed): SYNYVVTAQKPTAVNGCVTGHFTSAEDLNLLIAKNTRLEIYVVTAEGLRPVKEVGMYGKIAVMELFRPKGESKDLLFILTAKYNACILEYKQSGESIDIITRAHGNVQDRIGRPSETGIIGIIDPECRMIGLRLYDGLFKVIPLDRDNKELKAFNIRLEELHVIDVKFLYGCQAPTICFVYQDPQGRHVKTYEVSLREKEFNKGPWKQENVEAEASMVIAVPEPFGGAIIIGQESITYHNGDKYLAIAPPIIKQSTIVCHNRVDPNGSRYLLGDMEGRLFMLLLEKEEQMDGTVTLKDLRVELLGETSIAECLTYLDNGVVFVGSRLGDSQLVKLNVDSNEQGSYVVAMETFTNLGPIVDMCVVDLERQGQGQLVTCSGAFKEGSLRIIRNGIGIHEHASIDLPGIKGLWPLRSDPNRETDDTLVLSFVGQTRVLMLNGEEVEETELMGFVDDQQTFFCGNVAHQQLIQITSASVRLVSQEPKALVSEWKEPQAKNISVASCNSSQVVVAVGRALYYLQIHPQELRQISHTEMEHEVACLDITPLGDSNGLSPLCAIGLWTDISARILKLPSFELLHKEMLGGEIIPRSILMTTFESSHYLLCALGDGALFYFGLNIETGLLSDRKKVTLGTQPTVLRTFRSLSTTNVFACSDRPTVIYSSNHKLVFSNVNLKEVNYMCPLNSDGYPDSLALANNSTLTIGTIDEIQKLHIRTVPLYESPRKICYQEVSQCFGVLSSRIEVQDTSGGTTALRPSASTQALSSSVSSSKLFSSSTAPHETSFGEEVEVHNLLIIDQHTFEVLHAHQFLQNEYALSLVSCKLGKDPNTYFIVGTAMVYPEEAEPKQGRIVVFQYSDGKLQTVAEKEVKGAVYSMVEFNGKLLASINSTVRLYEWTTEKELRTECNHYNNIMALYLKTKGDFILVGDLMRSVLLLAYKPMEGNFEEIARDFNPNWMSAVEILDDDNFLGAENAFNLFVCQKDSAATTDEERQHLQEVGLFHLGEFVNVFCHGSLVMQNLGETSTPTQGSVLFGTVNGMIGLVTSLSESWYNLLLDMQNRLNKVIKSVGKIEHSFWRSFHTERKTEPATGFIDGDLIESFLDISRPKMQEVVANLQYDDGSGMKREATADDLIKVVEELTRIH
How it was run: as §1

SALL4 ZNF1-2 = target: T3, SALL4 ZNF1-2 (Homo sapiens, UniProt Q96SW2+Q9UJQ4); assay: Cellular degradation assay, eGFP-SALL4 ZnF1-2 fusion with mCherry reporter in Flp-In 293 cells; format: cell-based; details: 5 h incubation, n=1
T3 construct: IKZF1Δ, IKZF2Δ, GSPT1 and SALL4 ZnF1-2 were subcloned; expressed in transfected cells; host or cells: Flp-In 293
T3 sequence (Q9UJQ4 378-438 limits assumed): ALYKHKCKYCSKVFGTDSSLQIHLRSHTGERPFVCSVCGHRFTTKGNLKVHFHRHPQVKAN
T3 sequence (Q96SW2 whole entry, the tested form may be a part): as the sequence (Q96SW2 whole entry partner, the tested form may be a part) above
T3 sequence (Q16531 whole entry partner, the tested form may be a part): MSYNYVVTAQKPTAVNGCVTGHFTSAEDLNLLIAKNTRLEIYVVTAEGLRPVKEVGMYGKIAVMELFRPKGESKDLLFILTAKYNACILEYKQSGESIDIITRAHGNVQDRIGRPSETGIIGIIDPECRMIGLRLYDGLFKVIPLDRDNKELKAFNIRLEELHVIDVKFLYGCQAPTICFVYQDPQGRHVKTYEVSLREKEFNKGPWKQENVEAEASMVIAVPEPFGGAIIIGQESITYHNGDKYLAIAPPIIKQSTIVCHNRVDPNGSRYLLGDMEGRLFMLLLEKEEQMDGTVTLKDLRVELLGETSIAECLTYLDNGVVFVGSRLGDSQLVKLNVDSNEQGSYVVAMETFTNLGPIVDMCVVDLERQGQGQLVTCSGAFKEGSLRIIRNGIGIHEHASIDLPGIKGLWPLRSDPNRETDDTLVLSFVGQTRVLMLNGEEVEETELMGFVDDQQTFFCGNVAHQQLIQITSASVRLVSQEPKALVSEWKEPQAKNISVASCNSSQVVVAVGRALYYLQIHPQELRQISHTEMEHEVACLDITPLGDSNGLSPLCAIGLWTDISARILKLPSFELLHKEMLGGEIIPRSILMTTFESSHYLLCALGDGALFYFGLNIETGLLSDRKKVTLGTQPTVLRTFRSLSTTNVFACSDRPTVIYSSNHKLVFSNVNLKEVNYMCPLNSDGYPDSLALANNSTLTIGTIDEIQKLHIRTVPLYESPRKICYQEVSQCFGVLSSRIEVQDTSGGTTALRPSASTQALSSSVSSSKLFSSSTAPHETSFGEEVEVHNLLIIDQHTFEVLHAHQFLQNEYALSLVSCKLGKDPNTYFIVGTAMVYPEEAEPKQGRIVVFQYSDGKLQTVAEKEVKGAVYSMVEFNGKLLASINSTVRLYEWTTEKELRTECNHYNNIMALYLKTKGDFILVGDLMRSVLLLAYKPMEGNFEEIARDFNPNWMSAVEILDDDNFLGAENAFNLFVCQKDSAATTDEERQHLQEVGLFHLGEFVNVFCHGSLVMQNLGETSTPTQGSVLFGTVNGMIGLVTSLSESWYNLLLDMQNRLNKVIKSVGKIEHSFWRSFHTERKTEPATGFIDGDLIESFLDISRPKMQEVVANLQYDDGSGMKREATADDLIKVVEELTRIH
How it was run: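 Read-out is the ratio of GFP-positive to mCherry-positive cells per well, imaged at 488 and 561 nm right after 5-hour compound exposure (normalised to 0.5% DMSO). Cells: Flp-In 293 stably carrying eGFP-P2A-mCherry construct fused to SALL4 ZnF1-2.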

GSPT1 = GSPT1 (Homo sapiens, UniProt P15170+Q96SW2); assay: Cellular degradation assay, eGFP-GSPT1 fusion with mCherry reporter in Flp-In 293 cells; format: cell-based; set-up: expressed in transfected cells; host or cells: Flp-In 293; details: 5 h incubation, n=1
GSPT1, sequence (P15170 whole entry, the tested form may be a part): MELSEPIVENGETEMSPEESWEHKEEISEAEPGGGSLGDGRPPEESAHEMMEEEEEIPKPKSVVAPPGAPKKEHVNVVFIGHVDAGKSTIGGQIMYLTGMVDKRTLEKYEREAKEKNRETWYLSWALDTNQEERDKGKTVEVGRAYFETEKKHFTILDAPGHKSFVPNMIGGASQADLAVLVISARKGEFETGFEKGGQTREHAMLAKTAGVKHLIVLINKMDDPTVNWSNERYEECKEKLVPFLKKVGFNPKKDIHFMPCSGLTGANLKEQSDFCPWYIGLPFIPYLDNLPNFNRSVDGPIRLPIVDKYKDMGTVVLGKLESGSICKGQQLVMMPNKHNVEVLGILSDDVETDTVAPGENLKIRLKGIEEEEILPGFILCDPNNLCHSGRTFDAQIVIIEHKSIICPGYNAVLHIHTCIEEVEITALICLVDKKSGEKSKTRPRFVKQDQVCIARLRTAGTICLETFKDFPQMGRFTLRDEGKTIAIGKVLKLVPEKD
GSPT1, sequence (Q96SW2 whole entry, the tested form may be a part): as the sequence (Q96SW2 whole entry partner, the tested form may be a part) above
GSPT1, sequence (Q16531 whole entry partner, the tested form may be a part): as the sequence (Q16531 whole entry partner, the tested form may be a part) above
How it was run: as §1

[1] = compound concentration 6.6667E−05
[2] = compound concentration 6.6667E−06
[3] = compound concentration 6.6667E−07 (667 nM)
[4] = compound concentration 2.00E−05
[5] = compound concentration 2.00E−06
[6] = compound concentration 2.00E−07

T1 sequence (Q96SW2 whole entry): as the sequence (Q96SW2 whole entry partner, the tested form may be a part) above
T1 sequence (Q9UKS7 whole entry): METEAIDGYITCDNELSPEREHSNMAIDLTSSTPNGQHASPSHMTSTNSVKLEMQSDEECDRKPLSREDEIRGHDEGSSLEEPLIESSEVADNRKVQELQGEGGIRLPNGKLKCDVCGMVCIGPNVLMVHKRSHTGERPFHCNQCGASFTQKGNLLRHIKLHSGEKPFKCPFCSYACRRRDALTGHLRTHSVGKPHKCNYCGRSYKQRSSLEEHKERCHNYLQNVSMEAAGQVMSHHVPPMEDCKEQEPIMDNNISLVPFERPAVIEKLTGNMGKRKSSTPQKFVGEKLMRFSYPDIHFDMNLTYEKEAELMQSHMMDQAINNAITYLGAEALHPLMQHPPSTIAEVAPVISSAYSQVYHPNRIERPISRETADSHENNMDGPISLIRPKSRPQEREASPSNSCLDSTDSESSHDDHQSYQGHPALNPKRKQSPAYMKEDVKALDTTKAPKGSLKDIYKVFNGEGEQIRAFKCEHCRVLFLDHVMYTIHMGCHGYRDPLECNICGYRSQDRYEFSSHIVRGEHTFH

| Compound | TR-FRET-IKZF2 (Normalized to CC-885) (CRBN and Helios (IKZF2); [1]) | TR-FRET-IKZF2 (Normalized to CC-885) (CRBN and Helios (IKZF2); [2]) | TR-FRET-IKZF2 (Normalized to CC-885) (CRBN and Helios (IKZF2); [3]) | IKZF2 GFP/RFP Relative Abundance (IKZF2; [4]) | IKZF2 GFP/RFP Relative Abundance (IKZF2; [5]) | IKZF2 GFP/RFP Relative Abundance (IKZF2; [6]) | IKZF1 GFP/RFP Relative Abundance (IKZF1; [4]) | IKZF1 GFP/RFP Relative Abundance (IKZF1; [5]) | IKZF1 GFP/RFP Relative Abundance (IKZF1; [6]) | SALL4 ZNF1-2 GFP/RFP Relative Abundance (SALL4 ZNF1-2; [4]) | SALL4 ZNF1-2 GFP/RFP Relative Abundance (SALL4 ZNF1-2; [5]) | SALL4 ZNF1-2 GFP/RFP Relative Abundance (SALL4 ZNF1-2; [6]) | GSPT1 GFP/RFP Relative Abundance (GSPT1; [4]) | GSPT1 GFP/RFP Relative Abundance (GSPT1; [5]) | GSPT1 GFP/RFP Relative Abundance (GSPT1; [6]) |
| --- | --- | --- | --- | --- | --- | --- | --- | --- | --- | --- | --- | --- | --- | --- | --- |
| Cc1cc(NC2=CC(=O)N(C3CCC(=O)NC3=O)C2=O)ccc1Cl (stereo not drawn) [Compound 4, 3-(3-((4-chloro-3-methylphenyl)amino)-2,5-dioxo-2,5-dihydro-1H-pyrrol-1-yl)piperidine-2,6-dione] | 0.485 | 0.411 | 0.270 | 0.925 | 1.028 | 1.002 | 0.314 | 0.433 | 0.550 | 0.862 | 0.850 | 0.903 | 0.922 | 0.904 | 0.750 |
| Cc1ccc(NC2=CC(=O)N(C3CCC(=O)NC3=O)C2=O)cc1C#N (stereo not drawn) [Compound 5, 5-((1-(2,6-dioxopiperidin-3-yl)-2,5-dioxo-2,5-dihydro-1H-pyrrol-3-yl)amino)-2-methylbenzonitrile] | 0.376 | 0.296 | 0.187 | 0.930 | 1.000 | 1.020 | 0.395 | 0.478 | 0.650 | 1.008 | 0.946 | 0.992 | 0.714 | 0.843 | 1.050 |
| COC(=O)CN(C)C1=CC(=O)N(C2CCC(=O)NC2=O)C1=O (stereo not drawn) [Compound 15, Methyl N-(1-(2,6-dioxopiperidin-3-yl)-2,5-dioxo-2,5-dihydro-1H-pyrrol-3-yl)-N-methylglycinate] | 0.050 | 0.039 | 0.025 | 1.024 | 1.036 | 1.028 | 1.041 | 1.032 | 0.996 | 0.912 | 0.910 | 1.047 | 1.009 | 1.036 | 1.043 |
| Cc1ccc(NC(=O)Nc2cccc(NC3=CC(=O)N(C4CCC(=O)NC4=O)C3=O)c2)cc1Cl (stereo not drawn) [Compound 43, 1-(3-chloro-4-methylphenyl)-3-(3-((1-(2,6-dioxopiperidin-3-yl)-2,5-dioxo-2,5-dihydro-1H-pyrrol-3-yl)amino)phenyl)urea] | 0.443 | 0.353 | 0.278 | 1.054 | 1.007 | 0.980 | 0.996 | 0.240 | 0.301 | 1.072 | 0.897 | 0.888 | 0.083 | 0.072 | 0.087 |
| Cc1ccc(NC(=O)NCc2ccc(NC3=CC(=O)N(C4CCC(=O)NC4=O)C3=O)cc2)cc1Cl (stereo not drawn) [Compound 46, 1-(3-chloro-4-methylphenyl)-3-(4-((1-(2,6-dioxopiperidin-3-yl)-2,5-dioxo-2,5-dihydro-1H-pyrrol-3-yl)amino)benzyl)urea] | 0.787 | 0.828 | 0.701 | 0.242 | 0.361 | 0.510 | 0.045 | 0.087 | 0.112 | 0.950 | 0.906 | 0.854 | 0.048 | 0.089 | 0.076 |
| O=C1CCC(N2C(=O)C=C(Nc3ccc(Cc4ccccc4)cc3)C2=O)C(=O)N1 (stereo not drawn) [Compound 39, 3-(3-((4-benzylphenyl)amino)-2,5-dioxo-2,5-dihydro-1H-pyrrol-1-yl)piperidine-2,6-dione] | 0.271 | 0.230 | 0.174 | 1.070 | 1.008 | 1.047 | 0.705 | 0.691 | 0.677 | 1.110 | 1.006 | 1.043 | 0.743 | 0.813 | 0.830 |
| O=C1CCC(N2C(=O)C=C(Nc3ccc(-c4ccccc4)cc3)C2=O)C(=O)N1 (stereo not drawn) [Compound 38, 3-(3-([1,1′-biphenyl]-4-ylamino)-2,5-dioxo-2,5-dihydro-1H-pyrrol-1-yl)piperidine-2,6-dione] | 0.328 | 0.266 | 0.210 | 0.885 | 1.002 | 0.977 | 0.728 | 0.663 | 0.621 | 1.005 | 0.887 | 0.742 | 1.174 | 1.216 | 0.870 |
| CCOC(=O)c1cccc(NC2=CC(=O)N(C3CCC(=O)NC3=O)C2=O)c1 (stereo not drawn) [Compound 30, Ethyl 3-((1-(2,6-dioxopiperidin-3-yl)-2,5-dioxo-2,5-dihydro-1H-pyrrol-3-yl)amino)benzoate] | 0.386 | 0.324 | 0.228 | 0.916 | 0.928 | 0.979 | 0.388 | 0.437 | 0.631 | 0.815 | 0.786 | 0.896 | 1.100 | 1.129 | 1.192 |

From patent US12227488B2, “Small molecule degraders of Helios and methods of use” (DANA-FARBER CANCER INSTITUTE, INC., priority 2018, dated 2025)
